40 compounds from US8685974B2 (Bayer CropScience AG, priority 2009, dated 2014) can be followed below.

The structures appear in SMILES notation. Where two headings read alike, the source gives them in different places. Marks after values point to notes of the source that are not given here.

One data set concerns Pyrenophora teres. In words: In vivo test on Pyrenophora teres (barley net blotch). To be noted: dose of 500 ppm; barley plants; grading 12 days after contamination. How it is done:
In Vivo Test on Pyrenophora teres (Barley Net Blotch)
The active ingredients tested are prepared by homogenization in a mixture of acetone/Tween/DMSO, then diluted with water to obtain the desired active material concentration.
Barley plants (Plaisant variety), sown on a 50/50 peat soil-pozzolana substrate in starter cups and grown at 12° C., are treated at the 1-leaf stage (10 cm tall) by spraying with the active ingredient prepared as described above.
Plants, used as controls, are treated with an aqueous solution not containing the active material.
After 24 hours, the plants are contaminated by spraying them with an aqueous suspension of Pyrenophora teres spores (12,000 spores per ml). The spores are collected from a 12-day-old culture. The contaminated barley plants are incubated for 24 hours at about 20° C. and at 100% relative humidity, and then for 12 days at 80% relative humidity.
Grading is carried out 12 days after the contamination, in comparison with the control plants.

A further data set concerns Alternaria solani. The experiment in a line: Alternaria test (tomato) / protective. It counts as in vivo. To be noted: 500 ppm active compound, protective spray, evaluated 7 days after inoculation. As for the experimental part: Alternaria Test (Tomato)/Protective
Solvent: 49 parts by weight of N,N-dimethylformamide
Emulsifier: 1 part by weight of alkylaryl polyglycol ether
To produce a suitable preparation of active compound, 1 part by weight of active compound is mixed with the stated amounts of solvent and emulsifier, and the concentrate is diluted with water to the desired concentration.
To test for protective activity, young tomato plants are sprayed with the preparation of active compound at the stated application rate. […] The plants then remain at 96% rel. atmospheric humidity and a temperature of 20° C.
Evaluation is carried out 7 days after the inoculation. 0% means an efficacy which corresponds to that of the control, whereas an efficacy of 100% means that no infection is observed.

The subject of a further data set is Fusarium graminearum. It counts as cell-based. To be noted: 50 μM; for % Inhibition of DON/AcDON at 50 μM: 7 days at 28° C.

Compound `CCC(C)n1cc(-c2ccnc(N(C(C)=O)C(C)=O)n2)c(-c2ccc(Cl)s2)n1` (stereo not drawn) [Example 150] yielded a protection with Pyrenophora teres of 95%. The log p (pH 2.3) was 3.72^[a].
In the same order, the values of `CCC(C)n1cc(-c2ccnc(NC(C)=O)n2)c(-c2ccc(Cl)s2)n1` (stereo not drawn) [Example 151] are 90% and 3^[a].
In the data set on Pyrenophora teres, `CCCc1c(-c2ccnc(NC(=O)CC)c2)c(-c2sccc2C)nn1C` [Example 166] yielded a protection of 80%. Moreover, the log p by setting is: (pH 2.7) 2.29^[b]; (pH 7.8) 2.71^[c];. The “logP value of the minor isomer” value (pH 2.7) was 2.39^[b]) and the “logP value of the minor isomer” value (pH 7.8) is “(2.84^[c];”.
In the data set with Pyrenophora teres, `CC(C)C(=O)Nc1nccc(-c2cn(C(C)C)nc2-c2ccc(Cl)s2)n1` [Example 174] yielded a protection of 90%. For the setting “pH 2.3”, the log p was 3.29^[a].
In turn, `CC(=O)Nc1nccc(-c2cn(C(C)C)nc2-c2ccc(Cl)s2)n1` [Example 176] returned a protection in the data set with Pyrenophora teres of 90%. In addition, the log p (pH 2.3) is 2.59^[a].
In the case of `CC(C)n1cc(-c2ccnc(NC3CC3)n2)c(-c2ccc(Cl)s2)n1` [Example 177], the efficacy in the data set on Alternaria solani is 90%. The same compound gave a protection with Pyrenophora teres of 95%. The log p (pH 2.3) is 2.59^[a].
The compound `CC(C)n1cc(-c2ccnc(NCC3CC3)n2)c(-c2ccc(Cl)s2)n1` [Example 183] had a protection in the data set with Pyrenophora teres of 70%. Also, the log p (pH 2.3) was 3.02^[a].
Taken in the same sequence, the figures for `CCC(C)n1cc(-c2ccnc(NC(C)COC)n2)c(-c2ccc(Cl)s2)n1` (stereo not drawn) [Example 186] were 70% and 3.21^[a].
On to `CCC(C)n1cc(-c2ccnc(NCC3CC3)n2)c(-c2ccc(Cl)s2)n1` (stereo not drawn) [Example 187], for which, in the data set with Pyrenophora teres, the protection was determined as 70%. The log p (pH 2.3) is 3.41^[a].
Taken in the same sequence, the figures for `C#CCNc1nccc(-c2cn(C(C)CC)nc2-c2ccc(Cl)s2)n1` (stereo not drawn) [Example 188] were 78% and 3.68^[a].
The compound `CCC(C)n1cc(-c2ccnc(N)n2)c(-c2ccc(Cl)s2)n1` (stereo not drawn) [Example 193] came in with a protection in the data set on Pyrenophora teres of 95%. For the same compound, under “pH 2.3”, the log p was 2.3^[a].
Consider `CCC(C)n1cc(-c2ccnc(NC3COC3)n2)c(-c2ccc(Cl)s2)n1` (stereo not drawn) [Example 194], for which, in the data set on Fusarium graminearum, the “% Inhibition of fungal growth at 50 μM” value is 90% and the “% Inhibition of DON/AcDON at 50 μM” value was 99%. The same compound came in with an efficacy in the data set on Alternaria solani of 95%. This compound also registered a protection in the data set with Pyrenophora teres of 100%. For the same compound, the log p (pH 2.3) is 3.09^[a].
On to `CCC(C)n1cc(-c2ccnc(NC3CC3)n2)c(-c2ccc(Cl)s2)n1` (stereo not drawn) [Example 195], for which, in the data set on Fusarium graminearum, the “% Inhibition of fungal growth at 50 μM” value was determined as 94% and the “% Inhibition of DON/AcDON at 50 μM” value was 99%. In the data set on Pyrenophora teres, the protection was 95%. In addition, the log p (pH 2.3) was 2.9^[a].
In the data set on Alternaria solani, `CCn1cc(-c2ccnc(NC(=O)[C@H](C)O)c2)c(-c2ccc(Cl)s2)n1` [Example 206] yielded an efficacy of 80%. The compound also showed a protection in the data set on Pyrenophora teres of 90%. In addition, where the note is “pH 2.7”, the log p was 2.37^[b].
As for `C[C@H](O)C(=O)Nc1cc(-c2cn(C)nc2-c2ccc(Cl)s2)ccn1` [Example 207], in the data set on Pyrenophora teres, the protection is 70%. Besides, the log p (pH 2.7) is 2.11^[b].
In the same order, the values of `Cn1cc(-c2ccnc(NC(=O)C(C)(C)O)c2)c(-c2ccc(Cl)s2)n1` [Example 208] are 80% and 2.26^[b].
Take `CCC(C)n1cc(-c2ccnc(NC(=O)C(C)(C)O)c2)c(-c2ccc(Cl)s2)n1` (stereo not drawn) [Example 210]: in the data set on Alternaria solani, the efficacy worked out at 90%. Further, the protection with Pyrenophora teres turned out to be 70%. Besides, the log p (pH 2.7) was 4.24^[b].
`CC(C)n1cc(-c2ccnc(NC(=O)C(C)(C)O)c2)c(-c2ccc(Cl)s2)n1` [Example 211] gave an efficacy with Alternaria solani of 90%. The protection in the data set on Pyrenophora teres worked out at 95%. Further, under “pH 2.7”, the log p was 3.17^[b].
In the same order, the values of `CCn1cc(-c2ccnc(NC(=O)C(C)(C)O)c2)c(-c2ccc(Cl)s2)n1` [Example 212] are 70%, 80% and 2.73^[b].
In turn, `CCC(C)n1nc(-c2ccc(Cl)s2)c(-c2ccncc2)c1F` (stereo not drawn) [Example 213] had an efficacy in the data set with Alternaria solani of 80%. In the data set on Pyrenophora teres, this compound returned a protection of 70%. The log p (pH 2.7) is 2.61^[b].
In the data set with Alternaria solani, `CCC(C)n1cc(-c2ccnc(NC(=O)Cc3ccccc3)c2)c(-c2ccc(Cl)s2)n1` (stereo not drawn) [Example 224] yielded an efficacy of 80%. The compound also displayed a protection with Pyrenophora teres of 95%. Moreover, the log p (pH 2.7) is 4.35^[b].
`CCC(C)n1cc(-c2ccnc(NC(=O)c3ccsc3)c2)c(-c2ccc(Cl)s2)n1` (stereo not drawn) [Example 230] showed a protection in the data set on Pyrenophora teres of 70%. Moreover, the log p (pH 2.7) was 4.21^[b].
`CC(C)n1cc(-c2ccnc(NC(=O)c3ccsc3)c2)c(-c2ccc(Cl)s2)n1` [Example 232] yielded an efficacy in the data set with Alternaria solani of 80%. For the same compound, in the data set on Pyrenophora teres, the protection amounted to 80%. Further, the log p (pH 2.7) was 3.79^[b].
For the compound `CC(C)n1cc(-c2ccnc(NC(=O)C(C)(C)C)c2)c(-c2ccc(Cl)s2)n1` [Example 233], the efficacy in the data set with Alternaria solani was determined as 90%. The compound further had a protection in the data set with Pyrenophora teres of 90%. For the same compound, the log p (pH 2.7) is 3.87^[b].
In turn, `CCOC(=O)Nc1cc(-c2cn(C(C)CC)nc2-c2ccc(Cl)s2)ccn1` (stereo not drawn) [Example 236] had an efficacy in the data set on Alternaria solani of 80%. In addition, the protection in the data set on Pyrenophora teres turned out to be 95%. The log p (pH 2.7) is 3.92^[b].
Taken in the same sequence, the figures for `CCC(C)n1cc(-c2ccnc(NC(=O)c3cccs3)c2)c(-c2ccc(Cl)s2)n1` (stereo not drawn) [Example 238] were 70%, 80% and 4.37^[b].
`CC(C)n1cc(-c2ccnc(NC(=O)c3cccs3)c2)c(-c2ccc(Cl)s2)n1` [Example 241] returned a protection in the data set on Pyrenophora teres of 80%. For the same compound, the log p (pH 2.7) is 3.96^[b].
Compound `CC(C)OC(=O)Nc1cc(-c2cn(C(C)C)nc2-c2ccc(Cl)s2)ccn1` [Example 242] came in with an efficacy with Alternaria solani of 90%. Besides, the protection with Pyrenophora teres is listed as 70%. In addition, the log p (pH 2.7) is 3.85^[b].
`CC(C)n1cc(-c2ccnc(NC(=O)Cc3ccccc3)c2)c(-c2ccc(Cl)s2)n1` [Example 245] gave a protection in the data set with Pyrenophora teres of 100%. In addition, the log p (pH 2.7) was 3.94^[b].
Compound `CCn1cc(-c2ccnc(NC(=O)c3ccsc3)c2)c(-c2ccc(Cl)s2)n1` [Example 254] registered an efficacy in the data set with Alternaria solani of 70%. Moreover, the protection in the data set with Pyrenophora teres turned out to be 90%. Moreover, the log p (pH 2.7) was 3.29^[b].
Taken in the same sequence, the figures for `CCn1cc(-c2ccnc(NC(=O)C(C)(C)C)c2)c(-c2ccc(Cl)s2)n1` [Example 255] were 90%, 100% and 3.37^[b].
In the same order, the values of `CCOC(=O)Nc1cc(-c2cn(C(C)C)nc2-c2ccc(Cl)s2)ccn1` [Example 259] are 90%, 80% and 3.46^[b].
Taken in the same sequence, the figures for `CCn1cc(-c2ccnc(NC(=O)Cc3ccccc3)c2)c(-c2ccc(Cl)s2)n1` [Example 262] were 80%, 90% and 3.48^[b].
As to `CCOC(=O)Nc1cc(-c2cn(CC)nc2-c2ccc(Cl)s2)ccn1` [Example 265], in the data set with Fusarium graminearum, the “% Inhibition of fungal growth at 50 μM” value came out at 23% and the “% Inhibition of DON/AcDON at 50 μM” value is reported as 87%. Further, the protection with Pyrenophora teres amounted to 70%. Besides, the log p (pH 2.7) was 3^[b].
With `CCn1cc(-c2ccnc(NC(=O)c3cccs3)c2)c(-c2ccc(Cl)s2)n1` [Example 267], in the data set with Fusarium graminearum, the “% Inhibition of fungal growth at 50 μM” value is listed as 47% and the “% Inhibition of DON/AcDON at 50 μM” value is 89%. This compound also yielded a protection with Pyrenophora teres of 80%. The log p (pH 2.7) was 3.48^[b].
With `CCOC(=O)Nc1cc(-c2cn(C)nc2-c2ccc(Cl)s2)ccn1` [Example 271], in the data set with Fusarium graminearum, the “% Inhibition of fungal growth at 50 μM” value was determined as 20% and the “% Inhibition of DON/AcDON at 50 μM” value worked out at 94%. Also, the protection in the data set with Pyrenophora teres is listed as 90%. Also, the log p (pH 2.7) was 2.56^[b].
Consider `Cn1cc(-c2ccnc(NC(=O)c3ccccc3)c2)c(-c2ccc(Cl)s2)n1` [Example 272], for which the protection with Pyrenophora teres turned out to be 70%. Further, the log p (pH 2.7) was 3.09^[b].
For `CC(C)OC(=O)Nc1cc(-c2cn(C)nc2-c2ccc(Cl)s2)ccn1` [Example 274], in the data set with Alternaria solani, the efficacy amounted to 80%. In the data set with Pyrenophora teres, the protection was 80%. Under “pH 2.7”, the log p was 2.9^[b].
In the case of `Cn1cc(-c2ccnc(NC(=O)C3CCC3)c2)c(-c2ccc(Cl)s2)n1` [Example 275], in the data set on Fusarium graminearum, the “% Inhibition of fungal growth at 50 μM” value is recorded as 95% and the “% Inhibition of DON/AcDON at 50 μM” value is on record as 99%. Moreover, the protection in the data set with Pyrenophora teres came to 90%. Under “pH 2.7”, the log p was 2.52^[b].
Regarding `Cn1cc(-c2ccnc(NC(=O)c3ccsc3)c2)c(-c2ccc(Cl)s2)n1` [Example 282], the efficacy in the data set with Alternaria solani is given as 80%. Also, in the data set on Pyrenophora teres, the protection amounted to 70%. In addition, the log p (pH 2.7) is 2.88^[b].
